As a reminder, the NOAEL is the highest tested level that showed no adverse finding. Broadly, the LOAEL is the lowest dose or exposure tested at which an adverse effect was seen.

Series [1] has as its system Rattus norvegicus.
Series [2] relates to Rattus norvegicus. Conditions: for LEL: uterotrophic, Active.
Series [3] has as its system Rattus norvegicus. This is another data set of the same source.
For series [4], the system named is Mus musculus. The note with it: uterotrophic, Active.
For series [5], the system named is Rattus norvegicus. Conditions: subchronic; oral; diet; M/F; Wistar; Body Weight Changes: decrease + Food Consumption: decrease + Hematology: RBC decrease, Ret increase, , Hgb decrease + Blood Chemistry: gamma….
Where [6] appears, read: chronic, oral, gavage, F, increased kidney weight in female rats.
[7] abbreviates: subchronic, duration: 13 weeks, inhalation, M/F, increased kidney weight in female rats and adrenal weight in male and female rats.
Where [8] appears, read: duration: 0 days, injection, intraperitoneal.
[9] abbreviates: duration: 1 days, injection, intraperitoneal.
[10] abbreviates: duration: 3 days, injection, intraperitoneal.
Where [11] appears, read: duration: 4 days, injection, subcutaneous.
[12] abbreviates: duration: 1 days, injection, subcutaneous.
Setting [13] is: duration: 1.2 days, injection, subcutaneous.
The mark [14] stands for this setting: duration: 10 days, injection, subcutaneous.
Setting [15] is: duration: 14 days, injection, subcutaneous.

SMILES strings stand for the structures. Values joined by “and” are separate entries in the source; they are usually repeats but may differ in a detail not shown here. Identical values can stand only once.

With `COP(=S)(OC)Oc1nc(Cl)c(Cl)cc1Cl` [Chlorpyrifos-methyl], the NOAEL in series [1] (reproduction developmental, duration: 3 years, oral, diet, Liver: Effects + Reproduction: Decreased fertility) was 1 mg/kg-day. The LOEL in series [2] (Hershberger, duration: 10 days, oral, gavage, Sprague-Dawley, active + Negative + Antiandrogenic + anti-androgenic) worked out at 50 mg/kg-day.

On to `CC(C)c1ccccc1` [Cumene], for which the no-observed-adverse-effect level (NOAEL) in series [1] (chronic, duration: 194 days, oral, gavage, Kidney: Increased weight) was 154 mg/kg-day; in series [1] (short-term, duration: 4 weeks, inhalation, intermittent, Central nervous system: Involvement + Nose: Irritation) it was 517 mg/m3; in series [3] (setting [6]) it was 110 mg/kg-day; in series [3] (setting [7]) it was 2440 mg/m3. The LOAEL in series [3] (setting [6]) turned out to be 331 mg/kg-day; in series [3] (setting [7]), 5910 mg/m3.

As to `CC/C(=C(/CC)c1ccc(O)cc1)c1ccc(O)cc1` [Diethylstilbestrol], the LEL is 0.05 mg in series [2] (setting [8]); 0.5 mg/L in series [2] (duration: 1 days, dermal); 0.01 mg/kg-day in series [2] (setting [9]); 0.01 mg/kg-day in series [2] (setting [10]); 0.01 mg/day in series [2] (setting [11]); 0.005 ppm and 0.01 ppm in series [2] (duration: 4 days, oral, diet). For the same compound, the LEL in series [2] (duration: 7 days, oral) came to 0.0009 mg/kg-day; in series [2] (duration: 8 days, injection, intraperitoneal), 0.01 mg/kg-day; in series [4] (setting [9]) it was 0.0005 mg/kg-day; in series [4] (setting [12]), 0.00045 mg/animal; in series [4] (setting [13]), 0.00045 mg/animal; in series [4] (setting [10]), 0.1 mg/kg-day. Moreover, the LEL in series [4] (duration: 3 days, oral) is 0.02 mg/kg-day; in series [4] (duration: 4 days, oral), 0.0006 mg/day; in series [4] (duration: 5 days, oral, diet) it was 0.004 ppm; in series [4] (duration: 6 days, oral, diet), 3.6e-05 mg and 5e-05 mg/day; in series [4] (duration: 9 days, injection, subcutaneous), 0.5 mg/kg-day; in series [4] (duration: 9 days, oral, diet), 0.004 ppm. Besides, the LEL was found to be 0.0001 mg/day in series [4] (setting [14]); 0.004 ppm in series [4] (duration: 11 days, oral, diet); 0.01 mg/kg-day in series [4] (duration: 42 days, injection, subcutaneous); 0.002 mg/kg-day in series [4] (oral).

In the case of `O=c1c(-c2ccc(O)cc2)coc2cc(O)cc(O)c12` [Genistein], the NOEL in series [5] came to 50 mg/kg-day. Moreover, the LEL in series [2] (setting [8]) came to 1.25 mg; in series [2] (setting [9]) it was 0.4 mg; in series [2] (duration: 3.5 days, injection, subcutaneous) it was 1.25 mg/day; in series [2] (duration: 4 days, oral), 100 mg/kg-day; in series [2] (duration: 5 days, oral, diet) it was 375 mg/kg-day; in series [2] (duration: 7 days, oral) it was 60 mg/kg-day. The LEL in series [2] (setting [15]) turned out to be 250 mg/kg-day; in series [2] (duration: 30 days, oral), 125 mg/kg-day; in series [4] (duration: 0.17 days, injection, subcutaneous) it was 0.00027 mg; in series [4] (setting [10]) it was 1.25 mg/day; in series [4] (setting [11]), 2 mg/day; in series [4] (duration: 4 days, oral), 100 mg/kg-day. For the same compound, the LEL in series [4] (duration: 4 days, oral, diet) was 2.5 mg/day; in series [4] (duration: 6 days, oral, diet), 5.77 mg; in series [4] (duration: 7 days, oral) it was 200 mg/kg-day; in series [4] (setting [14]), 0.5 mg/day; in series [4] (setting [15]), 2 mg/day and 3 mg/day and 5 mg/day; in series [4] (duration: 28 days, injection, subcutaneous), 25 mg/kg-day.

Take `S=C([S-])NCCNC(=S)[S-].S=C([S-])NCCNC(=S)[S-].[Mn+2].[Zn+2]` [Mancozeb]: the NOEL in series [1] (chronic, duration: 90 weeks, oral, diet, Thyroid: Goitrogenic effects) came to 2.9 mg/kg-day.

Regarding `CCOP(=O)(/N=C1\SCC(C)S1)OCC` (configuration not stated) [Mephosfolan], in series [1] (chronic, duration: 17 weeks, oral, diet, Blood: Decreased cholinesterase activity + Brain: Decreased cholinesterase activity + Erythrocytes: Decreased cholinesterase activity + …), the NOEL was 0.09 mg/kg-day.

Regarding `O=C(Oc1ccccc1)c1ccccc1O` [Phenyl salicylate], the LEL in series [4] (duration: 3 days, oral) amounted to 33.3 mg/kg-day.

With `O=C(O)Cc1cc(I)c(Oc2ccc(O)c(I)c2)c(I)c1` [Tiratricol], the LEL was found to be 1000 mg/kg-day in series [4] (duration: 7 days, injection, subcutaneous) and 1000 mg/kg-day in series [4] (duration: 7 days, oral).

In the case of `C=C(C)c1ccccc1` [alpha-Methylstyrene], the NOEL in series [1] (chronic, duration: 197 days, inhalation, intermittent, Kidney: Increased weight + Liver: Increased weight) came to 970 mg/m3.

On to `CC[C@H](c1ccc(O)cc1)[C@@H](CC)c1ccc(O)cc1` [meso-Hexestrol], for which the LEL in series [4] (setting [12]) and in series [4] (setting [13]) was 0.00914 mg/animal throughout.
